Laboratory results published in patent publication US20240383892A1, “PARTICLES OF IMIDAZO[4,5-b]PYRIDINE COMPOUND, PHARMACEUTICAL COMPOSITIONS, AND THEIR USE IN TREATING MEDICAL CONDITIONS” (Centrexion Therapeutics Corporation, priority 2023, published 2024).
Each block holds one compound with its values, some of them ahead of it.

Assays:
Format in all cases: physicochemical
[1] = Stability comparison of crystalline forms: temperature of dehydration
Text: Stability of crystalline 3-(3-methoxy-4-((4-methoxybenzyl)oxy)benzyl)-6-(1-methyl-1H-pyrazol-4-yl)-3H-imidazo[4,5-b]pyridin-2-amine monohydrate Form 3 was compared to crystalline 3-(3-methoxy-4-((4-methoxybenzyl)oxy)benzyl)-6-(1-methyl-1H-pyrazol-4-yl)-3H-imidazo[4,5-b]pyridin-2-amine monohydrate Form 1. The physical property analyzed was temperature of dehydration. Crystalline 3-(3-methoxy-4-((4-methoxybenzyl)oxy)benzyl)-6-(1-methyl-1H-pyrazol-4-yl)-3H-imidazo[4,5-b]pyridin-2-amine monohydrate Form 1 is that described in international patent application publication WO 2016/100677.

[2] = Dynamic vapor sorption (hygroscopicity); settings: 2 cycles of increasing and decreasing relative humidity at 25° C., FIG. 3
Protocol: A dynamic vapor sorption isotherm plot of crystalline 3-(3-methoxy-4-((4-methoxybenzyl)oxy)benzyl)-6-(1-methyl-1H-pyrazol-4-yl)-3H-imidazo[4,5-b]pyridin-2-amine monohydrate Form 3 is provided in FIG. 3. The dynamic vapor sorption isotherm plot results are from the procedure where after a drying stage at 0% relative humidity, compound sample was exposed to 2 cycles of increasing and decreasing relative humidity at 25° C., with steps of 5% relative humidity, where mass of the sample was recorded throughout the experiment.

[3] = Particle size analysis, Malvern Mastersizer 2000; settings: dispersant 0.2% (w/v) Igepal in RO water
Protocol: Particle size analysis was performed on the particles using a Malvern Mastersizer 2000 particle size analyzer equipped with a Hydro2000S sample dispersion unit. Instrument parameters and experimental conditions are set forth below:
A 50 mg±5 mg of sample of particles was weighed and placed in a 20 mL plastic blood dilution vial. Five drops of dispersant (0.2% (w/v) Igepal in RO water) was added to the vial and mixed to a slurry using the flat end of a spatula. Dispersant (20 mL) was then added and stirred with a spatula to begin dispersion. The sample vial was placed onto a magnetic stir plate and stirred for 5 minutes. While stirring, we withdrew an aliquot of the dispersed sample using a transfer pipet and transferred it to the Hydro2000S until an obscuration of 10-30% was obtained. The sample was allowed to recirculate for 5 minutes at 2500 RPM prior to initiating the sample measurement.

temperature of dehydration ([1]; under a stream of nitrogen gas): room temperature
Compound: COc1ccc(COc2ccc(Cn3c(N)nc4cc(-c5cnn(C)c5)cnc43)cc2OC)cc1 [Form 1, 3-(3-methoxy-4-((4-methoxybenzyl)oxy)benzyl)-6-(1-methyl-1H-pyrazol-4-yl)-3H-imidazo[4,5-b]pyridin-2-amine monohydrate]

temperature of dehydration ([1]; heated): 130 °C
hygroscopicity (dynamic vapor sorption isotherm) [2]: not hygroscopic
Compound: COc1ccc(COc2ccc(Cn3c(N)nc4cc(-c5cnn(C)c5)cnc43)cc2OC)cc1 [Form 3, 3-(3-methoxy-4-((4-methoxybenzyl)oxy)benzyl)-6-(1-methyl-1H-pyrazol-4-yl)-3H-imidazo[4,5-b]pyridin-2-amine monohydrate]

Particle Size Parameter D10 [3]: 18.6 µm
Particle Size Parameter D50 [3]: 56.5 µm
Particle Size Parameter D90 [3]: 131 µm
Compound: COc1ccc(COc2ccc(Cn3c(N)nc4cc(-c5cnn(C)c5)cnc43)cc2OC)cc1 [Particles Prepared in Part I, 3-(3-methoxy-4-((4-methoxybenzyl)oxy)benzyl)-6-(1-methyl-1H-pyrazol-4-yl)-3H-imidazo[4,5-b]pyridin-2-amine monohydrate]
